Laboratory results as given in publication PMC2831066, “The Alzheimer's Disease-Associated Amyloid β-Protein Is an Antimicrobial Peptide” (PLoS ONE, 2010).
In brackets after ≈: the same amount, converted by molar mass. Where two headings read alike, the source gives them in different places. No end group written: not given here.

Experiments:
[1] = test system: Listeria monocytogenes; assay type: cell-based
Description: (§1) Bacteria were cultured aerobically in Mueller-Hinton broth (MHB), Brain and Heart Infusion broth (BHIB), or BHIB supplemented with 1% lysed horse blood and plated on Tryptone Soy Agar (TSA) plates containing 5% defibrinated sheep blood. […] Culture conditions for each organism are included in Table S1. Organisms were subcultured for 2 hrs to generate mid-logarithmic growth cultures for use as inoculates in experiments. Media reagents were obtained from Becton, Dickinson and Company (Sparks, MD).
(§2) Colonies from agar were transferred by sterile loop to growth media and incubated for 2 hrs at 37°C to achieve a McFarland density of 0.5. Bacteria inoculum cell densities were normalized to 5×10^5 cells/ml immediately before use photometrically and subsequently confirmed by colony count. Inoculum of C. albicans contained a cell density of 2.5×10^3 CFU/ml.
(§3) Bulk powdered peptides were first dissolved in 30% trifluoroethanol (TFE) at 1 mg/ml. Five hundred microliter aliquots of the stock solutions were lyophilized and stored under nitrogen at −20°C. Stock solutions at 2 mg/ml were prepared the day of experimentation from the peptide films by solubilizing a second time in either water or 20% TFE. Aβ stocks prepared in water were sonicated and insoluble peptide aggregates pelleted by centrifugation (10 min×16,000 g). Peptide concentrations in stock solutions were determined immediately before use by bicinchoninic acid (BCA) protein assay. […] For MIC experiments, peptides were serially diluted into growth media. For other experiments stocks were diluted into required working buffers. Experiments included controls for peptide buffer vehicle alone.
(§4) Peptide antimicrobial activity was determined as minimal inhibitory concentration (MIC). Experiments identified peptide MIC by broth microdilution susceptibility test in conjunction with CFU and alamar blue assays. Inoculum containing mid-logarithmic phase cells was dispensed into the wells of polypropylene 96-well plates (Fisher, Pittsburgh, PA) containing seven two-fold dilutions of test peptide in growth media. Plates were then incubated aerobically overnight (12 to 18 hrs) at 37°C. Peptide MIC was taken as the lowest concentration able reduce cell growth by CFU and alamar blue assays by at least two-fold and which correlated with the visible loss of a growth button on the bottom of microtiter wells. Experiments were repeated a minimum of three times for each organism, and tests included at least three replicates for each assay condition. Experiments included control serial dilutions of buffer vehicle alone.
(§5) Serial dilutions of incubants were prepared and streaked onto the surface of agar. The agar plates were then incubated overnight at 37°C and colonies forming units counted.
(§6) Microbial growth was determined by following the reduction of the synthetic metabolic substrate resazurin (alamar blue) to a fluorescent product by respiratory enzymes in living cells. Alamar blue assay is used in high throughput screens for antimicrobial agents and is available commercially in kit form from Invitrogen. Microbial growth in experiments was assayed with alamar blue kits according to the manufacturer's instructions. […] Fluorescence signal was measured at excitation of 530 nm and emission at 590 nm.

[2] = test system: Streptococcus agalactiae; assay type: cell-based
Description: as §1, §2, §3, §4, §5, §6

[3] = test system: Streptococcus pyogenes; assay type: cell-based
Description: as §1, §2, §3, §4, §5, §6

[4] = test system: Enterococcus faecalis; assay type: cell-based
Description: as §1, §2, §3, §4, §5, §6

[5] = test system: Streptococcus salivarius; assay type: cell-based
Description: as §1, §2, §3, §4, §5, §6

[6] = test system: Escherichia coli; assay type: cell-based
Description: as §1, §2, §3, §4, §5, §6

[7] = test system: Staphylococcus aureus; assay type: cell-based
Description: as §1, §2, §3, §4, §5, §6

[8] = test system: Pseudomonas aeruginosa; assay type: cell-based
Description: as §1, §2, §3, §4, §5, §6

[9] = test system: Staphylococcus epidermidis; assay type: cell-based
Description: as §1, §2, §3, §4, §5, §6

[10] = test system: Candida albicans; assay type: cell-based
Description: as §1, §2, §3, §4, §5, §6

[11] = test system: Streptococcus pneumoniae; assay type: cell-based
Description: as §1, §2, §3, §4, §5, §6

[12] = test system: Streptococcus mitis; assay type: cell-based
Description: as §1, §2, §3, §4, §5, §6

[13] = test system: E. faecalis; test: Growth curves of E. faecalis with peptide, CFU count; assay type: cell-based, Enterococcus faecalis; conditions: 25 µg/ml peptide; growth with time by CFU; six experiments, four replicates (Figure 1A)
Description: as §5

[14] = test system: panel of clinically relevant organisms; test: MIC against panel of clinically relevant organisms, recombinant versus synthetic peptide; assay type: cell-based; conditions: data not shown
Description: Aβ and LL-37 peptides were prepared and purified by Dr. James I. Elliott at Yale University (New Haven, CT) using solid-phase peptide synthesis. Scrambled LL-37 peptide was from AnaSpec (San Jose, CA). […] Findings for recombinant and SPPS prepared peptides were equivalent in all experiments.
as §4

[15] = clinical trial in AD patients; cited from earlier work

Compound: AIVVGGVMLGIIAGKNSGVDEAFFVLKQHHVEYGSDHRFEAD [reAβ42, Aβ42-1]
- MIC [1]: >50 µg/mL
- MIC [2]: >50 µg/mL
- MIC [3]: >50 µg/mL
- MIC [4]: 50 µg/mL
- MIC [5]: >50 µg/mL
- MIC [6]: >50 µg/mL
- MIC [7]: >50 µg/mL
- MIC [8]: >50 µg/mL
- MIC [9]: >50 µg/mL
- MIC ([10]; pH 7): >25 µg/mL
- MIC [11]: 50 µg/mL
- MIC [12]: >50 µg/mL

Compound: DAEFGHDSGFEVRHQKLVFFAEDVGSNKGAIIGLMVGGVVIA [roAβ42]
- MIC [1]: 6.25 µg/mL
- MIC [2]: >50 µg/mL
- MIC [3]: >50 µg/mL
- MIC [4]: 3.13 µg/mL
- MIC [5]: >50 µg/mL
- MIC [6]: 3.13 µg/mL
- MIC [7]: 12.5 µg/mL
- MIC [8]: >50 µg/mL
- MIC [9]: 3.13 µg/mL
- MIC ([10]; pH 7): 0.78 µg/mL
- MIC [11]: 6.25 µg/mL
- MIC [12]: >50 µg/mL

Compound: CC[C@H](C)[C@H](NC(=O)[C@H](CCCCN)NC(=O)[C@H](CCC(=O)O)NC(=O)[C@H](CCCCN)NC(=O)[C@H](CO)NC(=O)[C@H](CCCCN)NC(=O)[C@H](CCCNC(=N)N)NC(=O)[C@H](Cc1ccccc1)NC(=O)[C@H](Cc1ccccc1)NC(=O)[C@H](CC(=O)O)NC(=O)CNC(=O)[C@H](CC(C)C)NC(=O)[C@@H](N)CC(C)C)C(=O)NCC(=O)N[C@@H](CCCCN)C(=O)N[C@@H](CCC(=O)O)C(=O)N[C@@H](Cc1ccccc1)C(=O)N[C@@H](CCCCN)C(=O)N[C@@H](CCCNC(=N)N)C(=O)N[C@H](C(=O)N[C@H](C(=O)N[C@@H](CCC(N)=O)C(=O)N[C@@H](CCCNC(=N)N)C(=O)N[C@H](C(=O)N[C@@H](CCCCN)C(=O)N[C@@H](CC(=O)O)C(=O)N[C@@H](Cc1ccccc1)C(=O)N[C@@H](CC(C)C)C(=O)N[C@@H](CCCNC(=N)N)C(=O)N[C@@H](CC(N)=O)C(=O)N[C@@H](CC(C)C)C(=O)N[C@H](C(=O)N1CCC[C@H]1C(=O)N[C@@H](CCCNC(=N)N)C(=O)N[C@H](C(=O)N[C@@H](CCC(=O)O)C(=O)N[C@@H](CO)C(=O)O)[C@@H](C)O)C(C)C)[C@@H](C)CC)C(C)C)[C@@H](C)CC [LL-37]
- Action on E. faecalis growth (bacteriostatic or bactericidal) [13]: potent bactericidal activity
- MIC ([1]; Listeria monocytogenes ATCC 19112, inoculum 5×10^5 cells/ml, mid-logarithmic phase, overnight (12 to 18 hrs) 37°C, visual inspection confirmed by alamar blue and CFU, repeated at least three times): 25 µg/mL (≈ 5.56 µM)
- MIC ([2]; Streptococcus agalactiae ATCC 12386, inoculum 5×10^5 cells/ml, mid-logarithmic phase, overnight (12 to 18 hrs) 37°C, visual inspection confirmed by alamar blue and CFU, repeated at least three times): 12.5 µg/mL (≈ 2.78 µM)
- MIC ([3]; Streptococcus pyogenes ATCC 19615, inoculum 5×10^5 cells/ml, mid-logarithmic phase, overnight (12 to 18 hrs) 37°C, visual inspection confirmed by alamar blue and CFU, repeated at least three times): 6.25 µg/mL (≈ 1.39 µM)
- MIC ([4]; Enterococcus faecalis ATCC 29212, inoculum 5×10^5 cells/ml, mid-logarithmic phase, overnight (12 to 18 hrs) 37°C, visual inspection confirmed by alamar blue and CFU, repeated at least three times): 6.25 µg/mL (≈ 1.39 µM)
- MIC ([5]; Streptococcus salivarius ATCC 13419, inoculum 5×10^5 cells/ml, mid-logarithmic phase, overnight (12 to 18 hrs) 37°C, visual inspection confirmed by alamar blue and CFU, repeated at least three times): 50 µg/mL (≈ 11.1 µM)
- MIC ([6]; Escherichia coli ATCC 25922, inoculum 5×10^5 cells/ml, mid-logarithmic phase, overnight (12 to 18 hrs) 37°C, visual inspection confirmed by alamar blue and CFU, repeated at least three times): 1.56 µg/mL (≈ 0.347 µM)
- MIC ([7]; Staphylococcus aureus ATCC 25923, inoculum 5×10^5 cells/ml, mid-logarithmic phase, overnight (12 to 18 hrs) 37°C, visual inspection confirmed by alamar blue and CFU, repeated at least three times): 6.25 µg/mL (≈ 1.39 µM)
- MIC ([8]; Pseudomonas aeruginosa ATCC 27853, inoculum 5×10^5 cells/ml, mid-logarithmic phase, overnight (12 to 18 hrs) 37°C, visual inspection confirmed by alamar blue and CFU, repeated at least three times): 6.25 µg/mL (≈ 1.39 µM)
- MIC ([9]; Staphylococcus epidermidis ATCC 12228, inoculum 5×10^5 cells/ml, mid-logarithmic phase, overnight (12 to 18 hrs) 37°C, visual inspection confirmed by alamar blue and CFU, repeated at least three times): 25 µg/mL (≈ 5.56 µM)
- MIC ([10]; Candida albicans ATCC 10231, RPMI-1640 with 2% glucose, MOPS pH 7.0, inoculum 2.5×10^3 CFU/ml, mid-logarithmic phase, overnight (12 to 18 hrs) 37°C, visual inspection confirmed by alamar blue and CFU, repeated at least three times): 6.25 µg/mL (≈ 1.39 µM)
- MIC ([11]; Streptococcus pneumoniae ATCC 49619, inoculum 5×10^5 cells/ml, mid-logarithmic phase, overnight (12 to 18 hrs) 37°C, visual inspection confirmed by alamar blue and CFU, repeated at least three times): 1.56 µg/mL (≈ 0.347 µM)
- MIC ([12]; Streptococcus mitis ATCC 6249, inoculum 5×10^5 cells/ml, mid-logarithmic phase, overnight (12 to 18 hrs) 37°C, visual inspection confirmed by alamar blue and CFU, repeated at least three times): 6.25 µg/mL (≈ 1.39 µM)

Compound: recombinant Aβ42: Recombinant human Aβ42 purchased from rPeptide
- Antimicrobial activity compared with synthetic Aβ42 [14]: Equivalent findings

Compound: C[C@@H](C(=O)O)c1ccc(-c2ccccc2)c(F)c1 [tarenflurbil]
- Rates of infection in patients receiving the drug [15]: significantly increased rates of infection
